{
  "source": "patent US20070060610A1",
  "about": "“Methods and pharmaceutical formulations for increasing bioavailability” (priority 2005, published 2007)",
  "system": "Caco-2 monolayers",
  "details": "FIG. 1A; different pre-incubation times; Rhodamine 123 13 μM; TPGS 1000 33 μM on both sides",
  "description": "Caco-2 cell culture and handling: Caco-2 cells, clone C2BBe1, were purchased from American Type Culture Collection (ATCC; Manassas, Va.) and used from passage 70-92 with Corning Incorp. Life Sciences (Acton, Mass.) polycarbonate membranes (3460; 12-well, pore size 0.4 μm, 1.13 cm^2). Cells were seeded at a density of ˜60,000 cells/cm^2 and grown at ˜37° C. in a controlled atmosphere of ˜5% CO2 with a relative humidity of ˜85%. The culture medium consisted of DMEM supplemented with 10% FBS, 1% non-essential amino acids, 100 μg/mL streptomycin and 100 U/mL penicillin. Transepithelial electrical resistance (TEER) was measured with a hand-held REMS electrical volt-ohm meter EVOM (World Precision Instruments; Sarasota, Fla.). […]\nUsing the transport assay, drug transport was assessed in absorptive (apical to basolateral, Ap→Bl) and secretory (Bl→Ap) directions. […]\nCell monolayers were agitated using an orbital shaker (IKA®—Werke GmbH & CO KG; Staufen, Germany) at 100±20 rpm. […] RHO was quantified with a Cytofluor-2 fluorescence plate reader (Perkin Elmer Biosystems; Weiterstadt, Germany) operating at excitation wavelength of 485 nm and emission wavelength of 530 nm to measure RHO.\nApparent Permeability and statistical analysis: flux was determined using receiver compartment RHO steady-state appearance rates (ΔQ/Δt). Papp across Caco-2 monolayers was calculated via: [formula] […]",
  "data": [
    {"substance": "d-α-tocopheryl polyethylene glycol succinate [TPGS 1000]", "values": [
      {"measurement": "effect of pre-exposure on amount of compound transported across the cells (apical to basolateral)", "result": "effectively increases the amount of compound transported across the cells (apical to basolateral) in a time-dependent fashion"}
    ]}
  ]
}
